Results published in patent US12448389B2, “BRM targeting compounds and associated methods of use” (Prelude Therapeutics Incorporated, priority 2020, dated 2025).

What was measured:
[1] = target: T1, SMARCA4-HiBiT (Homo sapiens, UniProt P51532); test: SMARCA4 HiBiT degradation assay in HeLa cells; type: cell-based; details: 18 hours incubation; for DC50: read-out: HeLa-HiBit-SM4 DC50; for Dmax: HeLa, read-out: HeLa-HiBit-SM4 Dmax (%)
T1 construct: SMARCA4-HiBiT knock-in Hela monoclonal cell (CS3023226); host or cells: HeLa monoclonal knock-in line (CRISPR HiBiT knock-in at the endogenous locus, heterozygous)
T1 sequence (P51532 whole entry): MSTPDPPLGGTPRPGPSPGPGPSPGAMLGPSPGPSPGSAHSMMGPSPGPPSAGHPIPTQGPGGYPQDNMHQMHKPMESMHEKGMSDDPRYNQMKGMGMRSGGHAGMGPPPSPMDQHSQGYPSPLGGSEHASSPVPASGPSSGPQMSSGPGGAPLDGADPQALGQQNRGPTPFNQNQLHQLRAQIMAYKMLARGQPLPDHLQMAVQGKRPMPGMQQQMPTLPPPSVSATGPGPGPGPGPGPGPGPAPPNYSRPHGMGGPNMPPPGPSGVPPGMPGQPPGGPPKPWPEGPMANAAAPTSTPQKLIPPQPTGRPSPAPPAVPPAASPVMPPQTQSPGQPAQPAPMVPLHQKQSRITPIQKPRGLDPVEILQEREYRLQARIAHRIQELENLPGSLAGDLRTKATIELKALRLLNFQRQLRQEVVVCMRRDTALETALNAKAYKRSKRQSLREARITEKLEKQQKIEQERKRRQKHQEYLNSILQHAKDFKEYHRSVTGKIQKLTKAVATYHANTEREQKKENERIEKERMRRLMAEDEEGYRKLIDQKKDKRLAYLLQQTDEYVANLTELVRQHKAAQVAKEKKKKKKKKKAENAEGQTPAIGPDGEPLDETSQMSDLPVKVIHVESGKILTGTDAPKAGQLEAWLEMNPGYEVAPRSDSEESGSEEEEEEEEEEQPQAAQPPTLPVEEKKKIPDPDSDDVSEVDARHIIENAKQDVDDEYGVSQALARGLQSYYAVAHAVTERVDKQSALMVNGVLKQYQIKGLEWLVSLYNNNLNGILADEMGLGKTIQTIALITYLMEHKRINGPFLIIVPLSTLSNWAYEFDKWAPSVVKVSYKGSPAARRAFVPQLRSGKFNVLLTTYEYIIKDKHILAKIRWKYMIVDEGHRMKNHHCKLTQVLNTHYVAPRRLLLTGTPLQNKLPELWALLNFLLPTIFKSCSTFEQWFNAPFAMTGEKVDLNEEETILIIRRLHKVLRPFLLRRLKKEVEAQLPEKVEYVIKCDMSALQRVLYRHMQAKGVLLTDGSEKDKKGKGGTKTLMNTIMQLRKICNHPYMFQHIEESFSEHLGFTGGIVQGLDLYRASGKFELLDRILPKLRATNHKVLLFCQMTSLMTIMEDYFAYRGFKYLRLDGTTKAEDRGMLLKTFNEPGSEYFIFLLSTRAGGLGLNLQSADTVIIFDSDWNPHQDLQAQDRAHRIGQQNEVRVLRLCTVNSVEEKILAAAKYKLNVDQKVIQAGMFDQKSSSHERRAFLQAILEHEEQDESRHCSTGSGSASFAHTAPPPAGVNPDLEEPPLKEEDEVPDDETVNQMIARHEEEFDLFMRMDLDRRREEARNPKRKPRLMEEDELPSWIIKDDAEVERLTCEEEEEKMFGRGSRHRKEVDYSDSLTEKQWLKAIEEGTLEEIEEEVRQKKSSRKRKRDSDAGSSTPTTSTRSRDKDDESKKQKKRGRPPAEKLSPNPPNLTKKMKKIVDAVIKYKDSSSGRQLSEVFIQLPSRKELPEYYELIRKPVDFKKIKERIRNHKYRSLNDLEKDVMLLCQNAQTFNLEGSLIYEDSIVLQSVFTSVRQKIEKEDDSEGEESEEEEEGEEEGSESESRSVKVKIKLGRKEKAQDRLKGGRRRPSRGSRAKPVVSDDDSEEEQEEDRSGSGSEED
In short: (§1)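 HeLa monoclonal lines with heterozygous HiBiT knock-in were seeded at 2500 cells/well in EMEM with 10% FBS and treated with compound for 18 h at 37 °C. Remaining tagged protein was measured by Nano-Glo HiBiT lytic luminescence after 30–60 min at RT, and values came from curve fitting.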

[2] = target: T2, SMARCA2-HiBiT (Homo sapiens, UniProt P51531); test: SMARCA2 HiBiT degradation assay in HeLa cells; type: cell-based; details: 18 hours incubation; for DC50: read-out: HeLa_HiBit-SM2 DC50; for Dmax: HeLa, read-out: HeLa-HiBit-SM2 Dmax (%)
T2 construct: SMARCA2-HiBiT knock-in Hela monoclonal cell (CS302366); host or cells: HeLa monoclonal knock-in line (CRISPR HiBiT knock-in at the endogenous locus, heterozygous)
T2 sequence (P51531 whole entry): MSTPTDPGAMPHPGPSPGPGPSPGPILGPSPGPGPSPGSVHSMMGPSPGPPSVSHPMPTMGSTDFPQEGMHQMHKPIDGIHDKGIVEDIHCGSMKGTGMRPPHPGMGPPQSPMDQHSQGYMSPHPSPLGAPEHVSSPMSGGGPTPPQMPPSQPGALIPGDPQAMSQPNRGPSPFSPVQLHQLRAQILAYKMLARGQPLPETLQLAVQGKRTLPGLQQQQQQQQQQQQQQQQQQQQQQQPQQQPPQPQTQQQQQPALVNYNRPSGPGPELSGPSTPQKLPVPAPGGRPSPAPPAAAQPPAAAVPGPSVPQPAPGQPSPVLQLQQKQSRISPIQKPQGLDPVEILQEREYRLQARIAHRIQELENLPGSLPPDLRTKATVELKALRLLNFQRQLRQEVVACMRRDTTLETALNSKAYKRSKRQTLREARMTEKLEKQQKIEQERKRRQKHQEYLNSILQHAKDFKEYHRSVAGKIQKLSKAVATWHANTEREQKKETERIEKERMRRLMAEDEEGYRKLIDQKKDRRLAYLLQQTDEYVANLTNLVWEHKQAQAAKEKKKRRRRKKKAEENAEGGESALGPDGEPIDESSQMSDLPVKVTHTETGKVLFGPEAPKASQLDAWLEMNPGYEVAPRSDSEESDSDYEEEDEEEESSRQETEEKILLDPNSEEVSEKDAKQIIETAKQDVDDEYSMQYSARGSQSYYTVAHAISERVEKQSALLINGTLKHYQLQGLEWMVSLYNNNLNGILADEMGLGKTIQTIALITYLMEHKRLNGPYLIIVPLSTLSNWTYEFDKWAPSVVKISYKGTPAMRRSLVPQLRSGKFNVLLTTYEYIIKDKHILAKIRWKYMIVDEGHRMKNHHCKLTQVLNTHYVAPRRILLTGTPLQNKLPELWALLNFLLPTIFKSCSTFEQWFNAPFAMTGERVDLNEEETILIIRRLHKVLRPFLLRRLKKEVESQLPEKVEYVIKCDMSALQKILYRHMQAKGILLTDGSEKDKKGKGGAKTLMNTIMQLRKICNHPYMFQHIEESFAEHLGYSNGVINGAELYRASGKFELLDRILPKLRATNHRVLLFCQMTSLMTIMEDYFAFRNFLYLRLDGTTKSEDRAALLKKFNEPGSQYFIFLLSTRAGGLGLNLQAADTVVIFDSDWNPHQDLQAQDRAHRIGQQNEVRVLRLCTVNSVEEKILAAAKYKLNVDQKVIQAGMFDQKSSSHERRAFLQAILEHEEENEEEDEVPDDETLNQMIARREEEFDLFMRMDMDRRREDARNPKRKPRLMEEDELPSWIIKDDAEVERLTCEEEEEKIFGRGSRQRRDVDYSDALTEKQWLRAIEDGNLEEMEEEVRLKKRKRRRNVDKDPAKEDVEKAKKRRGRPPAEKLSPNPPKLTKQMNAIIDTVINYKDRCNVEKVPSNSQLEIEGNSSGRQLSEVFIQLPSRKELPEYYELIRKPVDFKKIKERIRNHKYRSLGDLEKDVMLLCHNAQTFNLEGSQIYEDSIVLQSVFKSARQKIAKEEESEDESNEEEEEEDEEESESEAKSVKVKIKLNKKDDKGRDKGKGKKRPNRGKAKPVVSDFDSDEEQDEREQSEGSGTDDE
In short: as §1

SMILES | DC50 [1] [nM] | Dmax [1] [%] | DC50 [2] [nM] | Dmax [2] [%] | HeLa-HiBit-SM4 Dmax (%) [1]
O=C1CCC(N2C(=O)c3ccc(N4CCN(CC5CCN(C(=O)N6CCN7c8cc(-c9ccccc9O)nnc8NC[C@H]7C6)CC5)CC4)cc3C2=O)C(=O)N1 (stereo partly drawn) [Example 142, 2-(2,6-dioxopiperidin-3-yl)-5-(4-((1-((S)-2-(2-hydroxyphenyl)-6,6a,7,8,9,10-hexahydro-5H-pyrazino[1′,2′:4,5]pyrazino[2,3-c]pyridazine-8-carbonyl)piperidin-4-yl)methyl)piperazin-1-yl)isoindoline-1,3-dione] | 10 to 100 | 50 to 75 | < 10 | 75 to 85 | –
O=C1CCC(N2Cc3ccc(N4CCC(CN5CC6(C5)CN(C(=O)N5CCN7c8cc(-c9ccccc9O)nnc8NC[C@H]7C5)C6)CC4)cc3C2=O)C(=O)N1 (stereo partly drawn) [Example 101, 3-(6-(4-((6-((S)-2-(2-hydroxyphenyl)-6,6a,7,8,9,10-hexahydro-5H-pyrazino[1′,2′:4,5]pyrazino[2,3-c]pyridazine-8-carbonyl)-2,6-diazaspiro[3.3]heptan-2-yl)methyl)piperidin-1-yl)-1-oxoisoindolin-2-yl)piperidine-2,6-dione] | 10 to 100 | 75 to 85 | < 10 | 75 to 85 | –
O=C1CCC(N2Cc3cc(N4CCC(CN5CCC(CN6CCN7c8cc(-c9ccccc9O)nnc8NC[C@H]7C6)CC5)CC4)c(F)cc3C2=O)C(=O)N1 (stereo partly drawn) [Example 234, 3-(6-fluoro-5-(4-((4-(((S)-2-(2-hydroxyphenyl)-5,6,6a,7,9,1O-hexahydro-8H-pyrazino[1′,2′:4,5]pyrazino[2,3-c]pyridazin-8-yl)methyl)piperidin-1-yl)methyl)piperidin-1-yl)-1-oxoisoindolin-2-yl)piperidine-2,6-dione] | < 10 | > 85 | < 10 | > 85 | –
C[C@H]1CN2c3cc(-c4ccccc4O)nnc3NC[C@H]2CN1C[C@H]1[C@@H]2CN(CC3CCN(c4ccc5c(c4)C(=O)N(C4CCC(=O)NC4=O)C5=O)CC3)C[C@@H]21 (stereo partly drawn) [Example 44, 2-(2,6-dioxopiperidin-3-yl)-5-(4-(((1R,5S,6r)-6-(((6aS,9S)-2-(2-hydroxyphenyl)-9-methyl-5,6,6a,7,9,10-hexahydro-8H-pyrazino[1′,2′:4,5]pyrazino[2,3-c]pyridazin-8-yl)methyl)-3-azabicyclo[3.1.0]hexan-3-yl)methyl)piperidin-1-yl)isoindoline-1,3-dione] | < 10 | 50 to 75 | < 10 | 75 to 85 | –
O=C1CCC(N2Cc3ccc(C4CCN(CCCN5CCC(CN6CCN7c8cc(-c9ccccc9O)nnc8NC[C@H]7C6)CC5)CC4)cc3C2=O)C(=O)N1 (stereo partly drawn) [Example 122, 3-(6-(1-(3-(4-(((S)-2-(2-hydroxyphenyl)-5,6,6a,7,9,10-hexahydro-8H-pyrazino[1′,2′:4,5]pyrazino[2,3-c]pyridazin-8-yl)methyl)piperidin-1-yl)propyl)piperidin-4-yl)-1-oxoisoindolin-2-yl)piperidine-2,6-dione] | 10 to 100 | 75 to 85 | 10 to 100 | > 85 | –
O=C1CCC(N2C(=O)c3cccc(NCCCN4CCC(N5CCN6c7cc(-c8ccccc8O)nnc7NC[C@H]6C5)CC4)c3C2=O)C(=O)N1 (stereo partly drawn) [Example 70, 2-(2,6-dioxopiperidin-3-yl)-4-((3-(4-((S)-2-(2-hydroxyphenyl)-5,6,6a,7,9,10-hexahydro-8H-pyrazino[1′,2′:4,5]pyrazino[2,3-c]pyridazin-8-yl)piperidin-1-yl)propyl)amino)isoindoline-1,3-dione] | < 10 | > 85 | < 10 | > 85 | –
O=C1CCC(N2Cc3ccc(N4CCN(CC5CCN(C(=O)N6CCN7c8cc(-c9ccccc9O)nnc8NC[C@H]7C6)CC5)CC4)cc3C2=O)C(=O)N1 (stereo partly drawn) [Example 146, 3-(6-(4-((1-((S)-2-(2-hydroxyphenyl)-6,6a,7,8,9,10-hexahydro-5H-pyrazino[1′,2′:4,5]pyrazino[2,3-c]pyridazine-8-carbonyl)piperidin-4-yl)methyl)piperazin-1-yl)-1-oxoisoindolin-2-yl) piperidine-2,6-dione] | < 10 | > 85 | < 10 | > 85 | –
O=C1CCC(N2C(=O)c3ccc(N4CCC(N5CCN6c7cc(-c8ccccc8O)nnc7NC[C@H]6C5)C4)cc3C2=O)C(=O)N1 (stereo partly drawn) [Example 156, 2-(2,6-dioxopiperidin-3-yl)-5-(3-((S)-2-(2-hydroxyphenyl)-5,6,6a,7,9,10-hexahydro-8H-pyrazino[1′,2′:4,5]pyrazino[2,3-c]pyridazin-8-yl)pyrrolidin-1-yl)isoindoline-1,3-dione] | 10 to 100 | 50 to 75 | 10 to 100 | 75 to 85 | –
CC1CN(c2ccc3c(c2)C(=O)N(C2CCC(=O)NC2=O)C3=O)CCC1CN1C[C@@H]2[C@H](C1)[C@H]2CN1CCN2c3cc(-c4ccccc4O)nnc3NC[C@H]2C1 (stereo partly drawn) [Example 197, 2-(2,6-dioxopiperidin-3-yl)-5-(4-(((1R,5S,6r)-6-(((S)-2-(2-hydroxyphenyl)-5,6,6a,7,9,10-hexahydro-8H-pyrazino[1′,2′:4,5]pyrazino[2,3-c]pyridazin-8-yl)methyl)-3-azabicyclo[3.1.0]hexan-3-yl)methyl)-3-methylpiperidin-1-yl)isoindoline-1,3-dione] | < 10 | – | < 10 | > 85 | B (B=75%<Dmax<=85%)
O=C1CCC(N2Cc3ccc(N4CCC(CN5CCN(C(=O)N6CCN7c8cc(-c9ccccc9O)nnc8NC[C@H]7C6)CC5)CC4)cc3C2=O)C(=O)N1 (stereo partly drawn) [Example 95, 3-(6-(4-((4-((S)-2-(2-hydroxyphenyl)-6,6a,7,8,9,10-hexahydro-5H-pyrazino [1′,2′:4,5]pyrazino[2,3-c]pyridazine-8-carbonyl)piperazin-1-yl)methyl)piperidin-1-yl)-1-oxoisoindolin-2-yl)piperidine-2,6-dione] | < 10 | 75 to 85 | < 10 | > 85 | –
O=C1CCC(N2C(=O)c3ccc(N4Cc5cnc(N6C[C@@H]7[C@@H](CN8CCN9c%10cc(-c%11ccccc%11O)nnc%10NC[C@H]9C8)[C@@H]7C6)nc5C4)cc3C2=O)C(=O)N1 (stereo partly drawn) [Example 58, 2-(2,6-dioxopiperidin-3-yl)-5-(2-((1R,5S,6s)-6-(((S)-2-(2-hydroxyphenyl)-5,6,6a,7,9,10-hexahydro-8H-pyrazino[1′,2′:4,5]pyrazino[2,3-c]pyridazin-8-yl)methyl)-3-azabicyclo[3.1.0]hexan-3-yl)-5,7-dihydro-6H-pyrrolo[3,4-d]pyrimidin-6-yl) isoindoline-1,3-dione] | 10 to 100 | ≤ 50 | < 10 | 50 to 75 | –

Now from value to molecule:

DC50 [1] [nM] | Dmax [1] [%] | DC50 [2] [nM] | Dmax [2] [%] | HeLa-HiBit-SM4 Dmax (%) [1] | SMILES
10 to 100 | 50 to 75 | < 10 | 75 to 85 | – | O=C1CCC(N2C(=O)c3ccc(N4CCC(CN5CCC(C(=O)N6CCN7c8cc(-c9ccccc9O)nnc8NC[C@H]7C6)CC5)C(F)(F)C4)cc3C2=O)C(=O)N1 (stereo partly drawn) [Example 196, 5-[3,3-difluoro-4-[[4-[(10S)-4-(2-hydroxyphenyl)-1,5,6,8,12-pentazatricyclo[8.4.0.02,7]tetradeca-2(7),3,5-trien-12-carbonyl]piperidin-1-yl]methyl]piperidin-1-yl]-2-(2,6-dioxopiperidin-3-yl) isoindole-1,3-dione]
< 10 | > 85 | < 10 | > 85 | – | O=C1CCC(N2Cc3ccc(N4CCC(CN5CCC(F)(CN6CCN7c8cc(-c9ccccc9O)nnc8NC[C@H]7C6)CC5)CC4)cc3C2=O)C(=O)N1 (stereo partly drawn) [Example 233, 3-(6-(4-((4-fluoro-4-(((S)-2-(2-hydroxyphenyl)-5,6,6a,7,9,10-hexahydro-8H-pyrazino[1′,2′:4,5]pyrazino[2,3-c]pyridazin-8-yl)methyl)piperidin-1-yl)methyl)piperidin-1-yl)-1-oxoisoindolin-2-yl)piperidine-2,6-dione]
< 10 | 50 to 75 | < 10 | > 85 | – | CC1CN(CC2CN(c3ccc4c(c3)C(=O)N(C3CCC(=O)NC3=O)C4=O)C2)CC(C)N1C(=O)N1CCN2c3cc(-c4ccccc4O)nnc3NC[C@H]2C1 (stereo partly drawn) [Example 274, 2-(2,6-dioxopiperidin-3-yl)-5-(3-((4-((S)-2-(2-hydroxyphenyl)-6,6a,7,8,9,10-hexahydro-5H-pyrazino[1 ′,2′:4,5]pyrazino[2,3-c]pyridazine-8-carbonyl)-3,5-dimethylpiperazin-1-yl)methyl)azetidin-1-yl)isoindoline-1,3-dione]
< 10 | 75 to 85 | < 10 | > 85 | – | O=C1CCC(N2Cc3cc(N4CCC(CNC56CCC(C(=O)N7CCN8c9cc(-c%10ccccc%10O)nnc9NC[C@H]8C7)(CC5)CC6)CC4)ccc3C2=O)C(=O)N1 (stereo partly drawn) [Example 84, 3-(5-(4-(((4-((S)-2-(2-hydroxyphenyl)-6,6a,7,8,9,10-hexahydro-5H-pyrazino[1 ′,2′:4,5]pyrazino[2,3-c]pyridazine-8-carbonyl)bicyclo[2.2.2]octan-1-yl)amino)methyl)piperidin-1-yl)-1-oxoisoindolin-2-yl)piperidine-2,6-dione]
< 10 | 75 to 85 | < 10 | > 85 | – | C[C@H]1CN2c3cc(-c4ccccc4O)nnc3NC[C@H]2CN1CC1CCN(CC2CCN(c3ccc4c(c3)C(=O)N(C3CCC(=O)NC3=O)C4=O)CC2)CC1 (stereo partly drawn) [Example 28, 2-(2,6-dioxopiperidin-3-yl)-5-(4-((4-(((6aS,9S)-2-(2-hydroxyphenyl)-9-methyl-5,6,6a,7,9,10-hexahydro-8H-pyrazino[1′,2′:4,5]pyrazino[2,3-c]pyridazin-8-yl)methyl)piperidin-1-yl)methyl)piperidin-1-yl) isoindoline-1,3-dione]
